Legend:
[1] = Stability of the isolated metabolite during structure elucidation; format: physicochemical; conditions: degraded prior to the acquisition of heteronuclear NMR spectra
Description: Compound 2 shared quite similar spectroscopic features with 1. In particular, all signals attributed to the steroidal nucleus, with the most prominent being the signals of the two angular methyls H3-18 and H3-19 (δH 1.09 and 0.94, respectively), the methyl at C-4 (δH 1.04), the oxymethine H-3 (δH 3.10), and the two olefinic protons H-9 and H-11 (δH 5.27 and 5.41, respectively), were also evident in the ^1H NMR spectrum of compound 2 (Table 1). The most significant difference observed was the replacement of the 1,2-disubstituted double bond in the side chain of 1 by a 1,1-disustituted double bond (δH 4.63 and 4.70) in the side chain of 2. The correlations observed in the COSY spectrum of 2 identified the relevant spin systems; however, metabolite 2 was proven unstable and degraded prior to the acquisition of heteronuclear NMR spectra. Nevertheless, the high structural similarity of 2 with compound 1 renders safe the proposed identification of 2 as (9E)-3β-hydroxy-4α,24-dimethyl-8,9-seco-5α-cholesta-9(11),24(28)-dien-8-one.

[2] = tested on: neuron-like SH-SY5Y cells; assay: Neuroprotection in 3-NPA-induced model of Huntington's disease, Calcein AM viability; format: cell-based, human; conditions: 20 mM 3-NPA alone, 48 h
[3] = tested on: human umbilical vein endothelial cells (HUVEC); assay: Migration scratch assay; format: cell-based; conditions: 20 µM, 20 h of treatment
Procedure: Subsequently, we examined whether the isolated steroids could influence angiogenesis or inflammation in vitro. […] Only non-cytotoxic concentrations in HUVECs were used for the scratch assay.
The scratch test was performed with HUVEC cells and evaluated after 20 h of treatment, as previously reported.

[4] = tested on: MCF7 (human breast adenocarcinoma cell line); assay: Cytotoxicity, resazurin assay, 72 h; conditions: MCF7, 72 h, read-out: Cytotoxicity (IC50) MCF7
Procedure: (§1) Initially, the cytotoxic activity of metabolites 3–7, 9–12, 14–20, and 22–26 was evaluated in human cancer and normal cells after 72 h of treatment. Human cervical cancer (HeLa), human breast adenocarcinoma (MCF7) cell lines, and human normal fibroblasts (BJ) were used for the screening.
(§2) The tested compounds were dissolved in DMSO to afford 10 mM stock solutions. Human cervical carcinoma (HeLa) and human breast adenocarcinoma (MCF7) cell lines were purchased from European Collection of Authenticated Cell Cultures (ECACC, Salisbury, UK) and cultivated in Dulbecco’s Modified Eagle Medium (DMEM) (Merck, Darmstadt, Germany), as previously reported [27]. […] All cells were maintained in a humidified CO2 incubator at 37 °C using the standard trypsinization procedure twice or three times a week. […] All cells were maintained in a humidified CO2 incubator at 37 °C using the standard trypsinization procedure twice or three times a week.
(§3) In cytotoxicity assays, cancer cells were treated with six different concentrations of each tested compound for 72 h. Cells were stained with resazurin and IC50 values were calculated as previously reported [26]. Triplicates from at least three independent experiments were used.

[5] = tested on: HeLa (human cervical cancer cell line); assay: Cytotoxicity, resazurin assay, 72 h; conditions: read-out: Cytotoxicity (IC50) HeLa
Procedure: as §1, §2, §3

[6] = Cytotoxicity, resazurin assay, 72 h; conditions: human, BJ cells (human normal fibroblasts)
Procedure: as §1, §3

[7] = tested on: ELAM (E-selectin, CD62E) on HUVEC; assay: Cell-surface ELISA CD62E (E-selectin, ELAM) after TNFα stimulation; format: cell-based, human; conditions: 10 µM; 30 min pre-treatment, then TNFα for 4 h
Procedure: TNFα stimulates NFκB (nuclear factor kappa-light-chain-enhancer of activated B cells) and thus E-selectin (CD62E, ELAM). Endothelial cells were pre-treated for 30 min with the tested compounds and then activated with TNFα for 4 h. Curcumin, which inhibits activation of NF-κB and thus inhibits expression and activity of the COX-2 gene induced by TNFα [21], was used as a positive control, decreasing ELAM production to 25% at 10 µM.
An enzyme-linked immunosorbent assay (ELISA) was used to detect the levels of the cell adhesion molecule ELAM in HUVEC cells after 30 min of incubation with the tested compounds and 4 h of stimulation with TNFα, as previously described.
the cell surface of endothelial cells that were pretreated with 10 µM compounds for 30 min and
subsequently stimulated with 10 ng/ml TNFα for 4 h. Data are means ± SDs ( n = 3).
(1 picture or pasted object on this page, not shown here)

C=C(CC[C@@H](C)[C@H]1CC[C@H]2C(=O)CC[C@H]3[C@H](C)[C@@H](O)CC[C@]3(C)/C=C/C[C@]12C)C(C)C [Compound 2, (9E)-3β-hydroxy-4α,24-dimethyl-8,9-seco-5α-cholesta-9(11),24(28)-dien-8-one]
Stability [1]: unstable

O=C(O)CC[N+](=O)[O-] [Compound 3-NPA, 3-nitropropionic acid]
Decrease in cell viability [2]: approx. 70%

C=C(CCC(C)C1CCC2C3C(OC(C)=O)C=C4CC(O)CCC4(CO)C3CCC12C)C(C)C (stereo not drawn) [Compound 22, 7β-acetoxy-24-methyl-cholesta-5,24(28)-dien-3β,19-diol]
Inhibition of HUVEC migration [3]: partially inhibited
IC50 [4]: 8.9 µM
IC50 [5]: 7.5 ± 0.1 µM
IC50 at 72 h [6]: 14.8 ± 5.8 µM

COc1cc(/C=C/C(=O)CC(=O)/C=C/c2ccc(O)c(OC)c2)ccc1O [Curcumin]
ELAM production (decreased to) [7]: 25%

— article PMC7763444, “Bioactive Steroids from the Red Sea Soft Coral Sinularia polydactyla” (Marine Drugs, 2020)
